Patent publication US10323041B2, “Bicyclic derivatives, a process for their preparation and pharmaceutical compositions containing them” (LES LABORATOIRES SERVIER, priority 2015, dated 2019)
Like-named read-outs stand apart in the source and are kept apart here.

Legend:
Mcl-1 protein = Mcl-1 protein (Homo sapiens, UniProt Q07820); assay: Inhibition of Mcl-1 by the fluorescence polarisation technique; type: binding
How it was run: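 Competitive FP with fluorescein-labelled peptide ligand, 5% DMSO, ~2 h at room temperature, 11-point curves, 4-parameter IC50. Method 1: 1 nM ligand, 5 nM Mcl-1 in HEPES pH 7.4 buffer; Method 2: 10 nM ligand, 10 nM Mcl-1 in phosphate pH 7.4 buffer, 50 μM unlabelled ligand as full-inhibition control.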

[1] = test system: H929 multiple myeloma tumour line; assay: In vitro cytotoxicity, Microculture Tetrazolium Assay on H929 cells; type: cell-based; conditions: Homo sapiens, NCI-H929, exposed for 48 hours, cell viability, read-out: IC50 (M) MTT H929
Protocol: The cytotoxicity studies were carried out on the H929 multiple myeloma tumour line.
The cells are distributed onto microplates and exposed to the test compounds for 48 hours. The cell viability is then quantified by a colorimetric assay, the Microculture Tetrazolium Assay (Cancer Res., 1987, 47, 939-942).

[2] = Method 1 (not underlined) or Method 2 (underlined), underlining not visible, first value where cell prints two, read-out: IC50 (M) Mcl-1 FP

Mcl-1 protein, sequence (Q07820 whole entry): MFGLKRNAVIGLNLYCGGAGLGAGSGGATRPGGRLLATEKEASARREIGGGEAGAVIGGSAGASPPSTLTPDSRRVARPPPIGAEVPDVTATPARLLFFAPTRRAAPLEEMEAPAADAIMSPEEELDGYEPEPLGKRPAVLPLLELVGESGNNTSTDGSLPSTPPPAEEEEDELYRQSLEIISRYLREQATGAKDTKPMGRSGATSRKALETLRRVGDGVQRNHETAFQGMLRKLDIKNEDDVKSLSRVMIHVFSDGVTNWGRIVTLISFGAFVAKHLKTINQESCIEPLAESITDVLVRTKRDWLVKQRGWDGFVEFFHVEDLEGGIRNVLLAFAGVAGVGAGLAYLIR

IC50 (Mcl-1 protein; [2])	IC50 (M) Mcl-1 FP (Mcl-1 protein; Method 1 (not underlined) or Method 2 (underlined), underlining not visible, first value where cell prints two)	IC50 (Mcl-1 protein; value after '/', presumably the other FP method (Method 1 / Method 2), read-out: IC50 (M) Mcl-1 FP, second value of the cell)	SMILES	IC50 [1]
5.45e-09 M	–	–	COc1ccccc1-c1nccc(COc2ccccc2C[C@@H](Nc2ccnc3sc(-c4ccc(F)cc4)c(-c4ccc(OCCN5CCN(C)CC5)c(Cl)c4C)c23)C(=O)O)n1 [Example 84, N-[3-{3-chloro-2-methyl-4-[2-(4-methylpiperazin-1-yl)ethoxy]phenyl}-2-(4-fluorophenyl)thieno[2,3-b]pyridin-4-yl]-2-{[2-(2-methoxyphenyl)pyrimidin-4-yl]methoxy}-D-phenylalanine]	1.09e-08 M
1.34e-07 M	–	–	CCOC(=O)OC(C)OC(=O)C(Cc1ccccc1OCc1ccnc(-c2ccccc2OC)n1)Oc1ccnc2sc(-c3ccc(F)cc3)c(-c3ccc(OCCN4CCN(C)CC4)c(Cl)c3C)c12 [Example 76, 1-[(ethoxycarbonyl)oxy]ethyl (2R)-2-{[(3Sa)-3-{3-chloro-2-methyl-4-[2-(4-methylpiperazin-1-yl)ethoxy]phenyl}-2-(4-fluorophenyl)thieno[2,3-b]pyridin-4-yl]oxy}-3-(2-{[2-(2-methoxyphenyl)pyrimidin-4-yl]methoxy}phenyl)propanoate]	1.01e-08 M
–	no curve	–	COc1ccccc1-c1nccc(COc2ccccc2C[C@@H](Nc2ccnc3nc(-c4ccc(F)cc4)c(-c4ccc(OCCN5CCN(C)CC5)c(Cl)c4C)n23)C(=O)O)n1 [Example 102, N-[3-{3-chloro-2-methyl-4-[2-(4-methylpiperazin-1-yl)ethoxy]phenyl}-2-(4-fluorophenyl)imidazo[1,2-a]pyrimidin-5-yl]-2-{[2-(2-methoxyphenyl)pyrimidin-4-yl]methoxy}-D-phenylalanine]	> 3e-05 M
4.1e-08 M	–	–	COc1ccccc1-c1nccc(COc2ccccc2CC(Oc2nccc3nc(-c4ccc(F)cc4)c(-c4ccc(OCCN5CCN(C)CC5)c(Cl)c4C)n23)C(=O)O)n1 (stereo not shown) [Example 97b, 2-{[(3Ra)-3-{3-chloro-2-methyl-4-[2-(4-methylpiperazin-1-yl)ethoxy]phenyl}-2-(4-fluorophenyl)imidazo[1,2-c]pyrimidin-5-yl]oxy}-3-(2-{[2-(2-methoxyphenyl)pyrimidin-4-yl]methoxy}phenyl)propanoic acid]	4.59e-07 M

More lines, now with the values behind:

SMILES	IC50 (Mcl-1 protein; [2])	IC50 (M) Mcl-1 FP (Mcl-1 protein; Method 1 (not underlined) or Method 2 (underlined), underlining not visible, first value where cell prints two)	IC50 (Mcl-1 protein; value after '/', presumably the other FP method (Method 1 / Method 2), read-out: IC50 (M) Mcl-1 FP, second value of the cell)	IC50 [1]
COc1ccccc1C[C@@H](Oc1ncnc2oc(-c3ccc(F)cc3)c(-c3ccc(OCCN4CCN(C)CC4)c(Cl)c3C)c12)C(=O)O [Example 3, (2R)-2-{[5-{3-chloro-2-methyl-4-[2-(4-methylpiperazin-1-yl)ethoxy]phenyl}-6-(4-fluorophenyl)furo[2,3-d]pyrimidin-4-yl]oxy}-3-(2-methoxyphenyl) propanoic acid]	1.7e-08 M	–	–	3.64e-07 M
CCc1sc2cccc(OC(Cc3ccccc3)C(=O)O)c2c1-c1ccc(OCCN2CCN(C)CC2)c(Cl)c1C [Example 51, (2R)-2-[((3Sa)-3-{3-chloro-2-methyl-4-[2-(4-methylpiperazin-1-yl)ethoxy]phenyl}-2-ethyl-1-benzothiophen-4-yl)oxy]-3-phenylpropanoic acid]	3.6e-07 M	–	5.5e-09 M	1.1e-05 M
COc1ccccc1-c1nccc(COc2ccccc2CC(Oc2cccc3oc(-c4ccc(F)cc4)c(-c4ccc(OCCN5CCN(C)CC5)c(Cl)c4C)c23)C(=O)O)n1 (single isomer, unassigned) [Example 64]	7.4e-09 M	–	–	4.71e-08 M
COc1ccccc1-c1nccc(COc2ccccc2CC(Oc2ccnc3sc(-c4ccc(F)cc4)c(-c4ccc(OCCN5CCN(C)CC5)c(Cl)c4C)c23)C(=O)O)n1 [Example 71, (2R)-2-{[(3Sa)-3-{3-chloro-2-methyl-4-[2-(4-methylpiperazin-1-yl)ethoxy]phenyl}-2-(4-fluorophenyl)thieno[2,3-b]pyridin-4-yl]oxy}-3-(2-{[2-(2-methoxyphenyl)pyrimidin-4-yl]methoxy}phenyl)propanoic acid]	5.02e-09 M	–	–	9.08e-09 M
COc1ccccc1-c1nccc(COc2ccccc2CC(Oc2cccc3c2c(-c2ccc(OCCN4CCN(C)CC4)c(Cl)c2C)c(-c2ccc(F)cc2)n3C)C(=O)O)n1 (single isomer, unassigned) [Example 69]	2.4e-08 M	–	–	1.04e-07 M
